From ChEMBL document CHEMBL1149402, “New potential antibacterials: a synthetic route to N-aryloxazolidinone/3-aryltetrahydroisoquinoline hybrids” (2006) come the findings set out here.

For the assay, the system named is Staphylococcus aureus. The assay is described as follows: Antibacterial activity against methicillin-susceptible Staphylococcus aureus ATCC 29213. Type of assay: functional.

Take `Br.CC(=O)NC[C@H]1CN(c2ccc(C3Cc4cc(O)c(O)cc4CN3)cc2)C(=O)O1` (stereo partly specified): the MIC is greater than 64 µg/mL.

One may read the MIC as the lowest concentration found to suppress growth.
